Experimental data from US20100261711A1, “SELECTIVE ANTICONVULSANT AGENTS AND THEIR USES” (WiSys Technology Foundation, priority 2009, published 2010).
Where two headings read alike, the source gives them in different places.

Assays:
6 Hz psychomotor seizure = assay: Minimal clonic seizure (6 Hz) test; type: in vivo; conditions: Mice IP, 32 mA
Excerpt: Like the maximal electroshock (MES) test, the minimal clonic seizure (6 Hz) test is used to assess a compound's efficacy against electrically-induced seizures but uses a lower frequency (6 Hz) and longer duration of stimulation (3 s). Test compounds are pre-administered to mice via ip injection. […] Untreated mice will display seizures characterized by a minimal clonic phase followed by stereotyped, automatistic behaviors described originally as being similar to the aura of human subjects with partial seizures. Animals not displaying this behavior are considered protected (Table 10).

[1] = tested on: Metrazol-induced clonic seizures; conditions: Mice IP; from Antiepileptic Drugs, 5th ed., Levy et al., 2002; cited from earlier work
MES-induced seizures [2] = conditions: Rat PO; from Antiepileptic Drugs, 5th ed., Levy et al., 2002; cited from earlier work
[3] = Toxicity (TOX), rotorod procedure, mice; type: in vivo; conditions: mouse, in vivo; IP route in mice (footnote of Table 10); read-out: TD50
Description: The benzodiazepine derivative compounds selective for GABAa receptor subunits were tested for the ability to suppress seizures in several standard rat and mouse models of epilepsy. […] The standard models incorporated into anticonvulsant screening include the maximal electroshock test (MES), the subcutaneous Metrazol test (scMet), and evaluations of toxicity (TOX). The data for each condition is presented as a ratio of either the number of animals protected or toxic (loss of locomotor activity) over the number of animals tested at a given time point and dose.
To assess a compound's undesirable side effects (toxicity), animals are monitored for overt signs of impaired neurological or muscular function. […] When a mouse is placed on a rod that rotates at a speed of 6 rpm, the animal can maintain its equilibrium for long periods of time. The animal is considered toxic if it falls off this rotating rod three times during a 1-min period. In rats, minimal motor deficit is indicated by ataxia, which is manifested by an abnormal, uncoordinated gait. Rats used for evaluating toxicity are examined before the test drug is administered, since individual animals may have peculiarities in gait, equilibrium, placing response, etc., which might be attributed erroneously to the test substance.

[4] = tested on: Metrazol-induced clonic seizures; conditions: Rat PO; from Antiepileptic Drugs, 5th ed., Levy et al., 2002; cited from earlier work
MES-induced seizures [5] = conditions: Mice IP; from Antiepileptic Drugs, 5th ed., Levy et al., 2002; cited from earlier work
[6] = tested on: minimal muscular or neurological impairment; conditions: Mice IP; from Antiepileptic Drugs, 5th ed., Levy et al., 2002; cited from earlier work
[7] = tested on: minimal motor deficit (ataxia, abnormal gait); conditions: Rat PO; from Antiepileptic Drugs, 5th ed., Levy et al., 2002; cited from earlier work

## NC(=O)N1c2ccccc2C=Cc2ccccc21 [Carbamazepine]
6 Hz psychomotor seizure; Mus musculus, ip, read-out: ED50 32 mA (6 Hz test)
  ED50: > 40 mg/kg
[1]
  ED50 scMet: >50 mg/kg
MES-induced seizures [2]
  ED50 MES: 5.35 mg/kg
[3]
  TD50: 41 mg/kg
[4]
  ED50 scMet: >250 mg/kg
MES-induced seizures [5]
  ED50 MES: 7.81 mg/kg

## O=C1CN=C(c2ccccc2Cl)c2cc([N+](=O)[O-])ccc2N1 [Clonazepan]
6 Hz psychomotor seizure
  ED50 32 mA (6 Hz test): 0.04 mg/kg
[1]
  ED50 scMet: 0.02 mg/kg
MES-induced seizures [2]
  ED50 MES: 7.86 mg/kg
[6]
  TD50 TOX: 0.26 mg/kg
[4]
  ED50 scMet: 0.61 mg/kg
MES-induced seizures [5]
  ED50 MES: 25.6 mg/kg
[7]
  TD50 TOX: 2.38 mg/kg
